Active and inactive are the calls of the source. No cut-off for these calls is given here.
Legend:
[1] = organism: Rattus norvegicus; assay: Compound was tested for binding affinity against D2 receptor expressed in CHO-K1 cells, using [3H]U-86170 as the radioligand; I=inactive (less than 50% inhibition at 1 uM).
[2] = tested on: Rattus norvegicus; assay: The Compound was tested in vivo for DOPA accumulation in limbic system against reserpine-pretreated rats; inactive at the highest dose tested (12.5).; assay type: functional, organism-based
[3] = biological target: T1, D(3) dopamine receptor (Rattus norvegicus, UniProt P19020); assay: Compound was tested for binding affinity against Dopamine receptor D3 expressed in CHO-K1 cells, using [3H]spiperone as the radioligand; I= inactive at the highest dose tested (12.5).; assay type: cell-based
[4] = tested on: Rattus norvegicus; assay: The Compound was tested in vivo for DOPA accumulation in limbic system against reserpine-pretreated rats;I= inactive at the highest dose tested (12.5).; assay type: functional, organism-based
[5] = tested on: Rattus norvegicus; assay: Compound was tested in vivo for 5-HTP accumulation in limbic system against reserpine-pretreated rats;I= inactive at the highest dose tested (12.5).; assay type: functional, organism-based
[6] = biological target: 5-hydroxytryptamine receptor 1D (Homo sapiens, UniProt P28221); assay: Binding affinity against 5-hydroxytryptamine 1D receptor alpha expressed in CHO-K1 cells, using [3H]-5-HT as the radioligand.; assay type: cell-based
[7] = biological target: T2, 5-hydroxytryptamine receptor 1A (Rattus norvegicus, UniProt P19327); assay: Binding affinity against 5-hydroxytryptamine 1A receptor from CHO-K1 cells, using [3H]8-OH-DPAT as the radioligand.; assay type: cell-based
T2 sequence (P19327 whole entry): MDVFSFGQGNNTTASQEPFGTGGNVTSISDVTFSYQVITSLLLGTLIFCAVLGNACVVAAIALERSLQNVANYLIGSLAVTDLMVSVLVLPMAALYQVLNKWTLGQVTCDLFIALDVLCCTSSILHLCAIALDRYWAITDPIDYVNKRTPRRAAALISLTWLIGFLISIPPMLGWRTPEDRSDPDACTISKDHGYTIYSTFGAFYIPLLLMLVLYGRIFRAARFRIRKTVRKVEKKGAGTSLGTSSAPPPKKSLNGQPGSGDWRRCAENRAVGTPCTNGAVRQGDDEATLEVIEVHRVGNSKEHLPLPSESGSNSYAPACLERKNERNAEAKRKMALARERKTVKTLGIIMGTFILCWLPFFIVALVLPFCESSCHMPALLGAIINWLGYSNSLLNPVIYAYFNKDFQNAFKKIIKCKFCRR

[8] = biological target: 5-hydroxytryptamine receptor 1B (Homo sapiens, UniProt P28222); assay: Binding affinity against 5-hydroxytryptamine 1D receptor beta expressed in CHO-K1 cells, using [3H]5-HT as the radioligand.; assay type: cell-based
[9] = tested on: Rattus norvegicus; assay: Compound was tested in vivo for DOPA accumulation in corpus striatum against reserpine-pretreated rats; I=inactive at the highest dose tested (12.5).; assay type: functional, organism-based
[10] = biological target: T3, D(2) dopamine receptor (Rattus norvegicus, UniProt P61169); details: cho-k1
[11] = organism: Rattus norvegicus; assay: Compound was tested for binding affinity against D3 receptor expressed in CHO-K1 cells, using [3H]spiperone as the radioligand;I= inactive (less than 50% inhibition at 1 uM).
[12] = Bioavailability in rat plasma following iv/po dose; assay type: ADME, organism-based
[13] = tested on: Rattus norvegicus; assay: Bioavailability in male Sprague-Dawley rats, after the iv administration at a dose of 4.0(pmol/g/h); assay type: ADME, organism-based; details: in vivo
[14] = tmax in hours at a po dose of 10.0(pmol/g/h).; assay type: ADME, organism-based; details: in vivo, 10 pmol/g/h
[15] = tested on: Rattus norvegicus; assay: Bioavailability in male Sprague-Dawley rats, after the po administration at a dose of 10.0(pmol/g/h); assay type: ADME, organism-based; details: in vivo
[16] = tested on: Rattus norvegicus; assay: The Compound was tested in vivo for DOPA accumulation in hemispheres (cortex) against reserpine-pretreated rats; I= inactive at the highest dose tested (12.5).; assay type: functional, organism-based
[17] = Ratio of the 5-HTP accumulation decrease in limbic regions after oral and subcutaneous administration in rat.; assay type: functional, Limbic system
[18] = tmax in hours at a iv dose of 4.0(pmol/g/h).; assay type: ADME, organism-based; details: in vivo
[19] = tmax in hours at a iv dose of 54.0(pmol/g/h).; assay type: ADME, organism-based; details: in vivo
[20] = tmax in hours at a dose of 10.0(pmol/g/h).; assay type: ADME
[21] = tested on: Rattus norvegicus; assay: In vivo for DOPA accumulation in limbic system against reserpine-pretreated rats.; assay type: functional
[22] = biological target: T1, D(3) dopamine receptor; assay: Binding affinity against Dopamine receptor D3 from CHO-K1 cells, using [3H]spiperone as the radioligand.; assay type: cell-based; details: read-out: Ki
[23] = biological target: T3, D(2) dopamine receptor; assay: Binding affinity against Dopamine receptor D2 from CHO-K1 cells, using [3H]U-86,170 as the radioligand.; assay type: cell-based
[24] = tested on: Rattus norvegicus; assay: In vivo for 5-HTP accumulation in corpus striatum against reserpine-pretreated rats.; assay type: functional
[25] = tested on: Rattus norvegicus; assay: The Compound was tested in vivo for DOPA accumulation in hemispheres (cortex) against reserpine-pretreated rats;I= inactive at the highest dose (12.5); assay type: functional, organism-based
[26] = tested on: Rattus norvegicus; assay: In vivo for 5-HTP accumulation in limbic system against reserpine-pretreated rats.; assay type: functional
[27] = tested on: Rattus norvegicus; assay: In vivo for 5-HTP accumulation in hemispheres (cortex) against reserpine-pretreated rats.; assay type: functional
[28] = tested on: Rattus norvegicus; assay: In vivo for DOPA accumulation in corpus striatum against reserpine-pretreated rats.; assay type: functional
[29] = tested on: Rattus norvegicus; assay: Bioavailability in male Sprague-Dawley rats, after the iv administration at a dose of 54.0(pmol/g/h); assay type: ADME, organism-based; details: in vivo
[30] = tested on: Rattus norvegicus; assay: The compound was tested in vivo for DOPA accumulation in hemispheres (cortex) against reserpine-pretreated rats;I= inactive at the highest dose tested; assay type: functional, organism-based
[31] = tested on: Rattus norvegicus; assay: compound was tested in vivo for DOPA accumulation in corpus striatum against reserpine-pretreated rats; assay type: functional
[32] = tested on: Rattus norvegicus; assay: The compound was tested in vivo for DOPA accumulation in hemispheres (cortex) against reserpine-pretreated rats; I= inactive at the highest dose tested (20).; assay type: functional, organism-based
[33] = tested on: Rattus norvegicus; assay: compound was tested in vivo for 5-HTP accumulation in hemispheres (cortex) against reserpine-pretreated rats; P=significant partial reduction only at the highest dose tested (20).; assay type: functional, organism-based
[34] = tested on: Rattus norvegicus; assay: compound was tested in vivo for 5-HTP accumulation in corpus striatum against reserpine-pretreated rats, activity expressed as ED50; P=significant partial reduction only at the highest dose tested (20).; assay type: functional, organism-based
[35] = biological target: T1, D(3) dopamine receptor; assay: The compound was tested in vitro for binding affinity against cloned mammalian Dopamine receptor D3 expressed in CHO cells by, using [3H]spiperone as radioligand; assay type: cell-based
[36] = biological target: T3, D(2) dopamine receptor; assay: Binding affinity against Dopamine receptor D2 expressed in CHO-K1 cells, using [3H]U-86170 as the radioligand.; assay type: cell-based
[37] = tested on: Rattus norvegicus; assay: The compound was tested in vivo for DOPA accumulation in limbic system against reserpine-pretreated rats; P=significant partial reduction only at the highest dose tested (20).; assay type: functional, organism-based
[38] = tested on: Rattus norvegicus; assay: compound was tested in vivo for DOPA accumulation in corpus striatum against reserpine-pretreated rats; P=significant partial reduction only at the highest dose tested (20).; assay type: functional, organism-based
[39] = tested on: Rattus norvegicus; assay: compound was tested in vivo for 5-HTP accumulation in limbic system against reserpine-pretreated rats; P=significant partial reduction only at the highest dose tested (20).; assay type: functional, organism-based
[40] = tested on: Rattus norvegicus; assay: The compound was tested in vivo for DOPA accumulation in limbic system against reserpine-pretreated rats;I= inactive at the highest dose tested; assay type: functional, organism-based
[41] = tested on: Rattus norvegicus; assay: compound was tested in vivo for DOPA accumulation in corpus striatum against reserpine-pretreated rats;I= inactive at the highest dose tested; assay type: functional, organism-based

Chain of 5-hydroxytryptamine receptor 1B (P28222 whole entry): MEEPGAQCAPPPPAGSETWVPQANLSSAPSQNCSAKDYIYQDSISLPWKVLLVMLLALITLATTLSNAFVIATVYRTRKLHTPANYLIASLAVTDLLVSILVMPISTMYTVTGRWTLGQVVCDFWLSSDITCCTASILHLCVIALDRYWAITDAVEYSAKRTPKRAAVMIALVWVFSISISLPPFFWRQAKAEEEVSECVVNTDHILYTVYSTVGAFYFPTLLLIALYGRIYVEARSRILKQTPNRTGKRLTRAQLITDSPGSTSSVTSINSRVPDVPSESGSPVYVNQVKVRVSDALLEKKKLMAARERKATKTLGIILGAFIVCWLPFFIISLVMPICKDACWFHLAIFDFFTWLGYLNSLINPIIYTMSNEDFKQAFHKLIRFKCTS
Chain of 5-hydroxytryptamine receptor 1D (P28221 whole entry): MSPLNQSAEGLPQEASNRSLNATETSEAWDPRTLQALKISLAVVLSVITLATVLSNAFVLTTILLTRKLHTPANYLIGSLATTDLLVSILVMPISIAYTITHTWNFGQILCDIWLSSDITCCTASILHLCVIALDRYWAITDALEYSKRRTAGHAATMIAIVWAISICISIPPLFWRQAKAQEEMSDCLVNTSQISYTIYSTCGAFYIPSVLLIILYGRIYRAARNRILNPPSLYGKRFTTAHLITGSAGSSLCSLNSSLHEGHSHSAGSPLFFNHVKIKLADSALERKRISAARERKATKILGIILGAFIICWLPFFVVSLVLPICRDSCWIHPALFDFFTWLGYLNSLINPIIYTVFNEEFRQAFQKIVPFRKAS
T1 sequence (P19020 whole entry): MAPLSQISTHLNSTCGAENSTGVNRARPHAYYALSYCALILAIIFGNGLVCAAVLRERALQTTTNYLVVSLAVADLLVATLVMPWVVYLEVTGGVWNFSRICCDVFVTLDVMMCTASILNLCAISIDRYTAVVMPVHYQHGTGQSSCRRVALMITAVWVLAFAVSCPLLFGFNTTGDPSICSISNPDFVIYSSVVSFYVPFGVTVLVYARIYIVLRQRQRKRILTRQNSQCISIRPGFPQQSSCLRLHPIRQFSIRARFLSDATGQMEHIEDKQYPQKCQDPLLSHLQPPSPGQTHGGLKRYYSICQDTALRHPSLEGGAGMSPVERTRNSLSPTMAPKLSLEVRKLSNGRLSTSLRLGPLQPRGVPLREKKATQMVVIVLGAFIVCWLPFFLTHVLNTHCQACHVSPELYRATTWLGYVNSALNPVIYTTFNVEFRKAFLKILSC
T3 sequence (P61169 whole entry): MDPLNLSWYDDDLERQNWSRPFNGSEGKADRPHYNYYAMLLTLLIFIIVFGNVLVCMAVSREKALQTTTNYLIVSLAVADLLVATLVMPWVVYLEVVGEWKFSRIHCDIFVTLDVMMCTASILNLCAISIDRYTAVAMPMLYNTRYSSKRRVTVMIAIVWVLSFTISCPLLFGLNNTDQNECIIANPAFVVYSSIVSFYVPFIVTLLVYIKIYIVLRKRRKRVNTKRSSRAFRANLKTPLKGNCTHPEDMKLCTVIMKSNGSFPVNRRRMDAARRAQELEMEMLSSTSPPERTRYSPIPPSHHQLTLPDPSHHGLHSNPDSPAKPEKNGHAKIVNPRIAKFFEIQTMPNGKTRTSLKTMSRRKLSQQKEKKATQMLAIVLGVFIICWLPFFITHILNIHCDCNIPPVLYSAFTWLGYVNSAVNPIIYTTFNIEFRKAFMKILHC

## CCCN(CCC)C1CCc2ccc3[nH]cc(CN(C)C)c3c2C1 (configuration not stated)
[1]
  Ki: inactive
[2]
  ED50: inactive
[3]
  Ki: Not Active
[4]
  ED50: inactive
[5]
  ED50: inactive
[6]; cho-k1
  Ki: Not Active
[7]
  Ki: 113 nM
[8]; cho-k1
  Ki: Not Active
[9]
  ED50: inactive
[10]
  Ki: Not Active
[11]
  Ki: inactive

## CCCN(CCC)[C@@H]1CCc2ccc3[nH]c(C#N)cc3c2C1 [U-92,016-A]
[12]
  bioavailability: 63%
[13]
  AUC: 1817 pM ml-1
[14]
  Tmax: 75 h
[15]
  AUC: 2857 pM ml-1
[16]
  ED50: inactive
[17]
  ED50 ratio: 38
[18]
  Tmax: 4 h

## CCCN(CCC)C1CCc2cc(F)c3[nH]cc(C#N)c3c2C1 (configuration not stated)
[19]
  Tmax: 2 h
[20]
  Tmax: 33 h
[12]
  bioavailability: 8.1%
[21]
  ED50: 0.55 µmol/kg
[22]
  Ki: 63 nM
[23]
  Ki: 72 nM
[24]
  ED50: 0.43 µmol/kg
[25]
  ED50: inactive
[26]
  ED50: 0.52 µmol/kg
[27]
  ED50: 0.46 µmol/kg
[6]; read-out: Ki
  Ki: 8.6 nM
[7]
  Ki: 2.3 nM
[15]
  AUC: 48 pM ml-1
[8]; read-out: Ki
  Ki: 121 nM
[28]
  ED50: 2.1 µmol/kg
[29]
  AUC: 238 pM ml-1

## CCCN(CCC)C1CCc2ccc3[nH]cc(C=O)c3c2C1 (configuration not stated)
[22]
  Ki: 70 nM
[6]; read-out: Ki
  Ki: 173 nM
[8]; read-out: Ki
  Ki: 364 nM
[30]
  ED50: inactive
[31]
  ED50: 3.34 µmol/kg

## CCCN(CCC)C1CCc2cc(F)c3c(c(C=O)cn3C)c2C1 (configuration not stated)
[32]
  ED50: inactive
[33]
  ED50: Weak activity
[34]
  ED50: Weak activity
[35]
  Ki: 572 nM
[36]
  Ki: 1030 nM
[37]
  ED50: Weak activity
[6]; read-out: Ki
  Ki: 419 nM
[7]
  Ki: 28 nM
[8]; read-out: Ki
  Ki: 618 nM
[38]
  ED50: Weak activity
[39]
  ED50: Weak activity

## CCCN(CCC)[C@@H]1CCc2ccc3[nH]cc(C=O)c3c2C1
[40]
  ED50: inactive
[22]
  Ki: 51 nM
[23]
  Ki: 17 nM
[6]; read-out: Ki
  Ki: 31 nM
[41]
  ED50: inactive
[8]; read-out: Ki
  Ki: 210 nM
[30]
  ED50: inactive
